Laboratory results from BigSolDB 2.1.

Clc1ccccc1C(c1ccccc1)(c1ccccc1)n1ccnc1
solubility (mole fraction)
Details	293.15 K	298.15 K	303.15 K	308.15 K	313.15 K
in n-hexane	0.000222	0.000267	0.000319	0.000383	0.000455
in n-octanol	0.0204	0.0249	0.0304	0.0372	0.045
